Laboratory results taken from patent US11267861B2, “Peptide-oligourea foldamer compounds and methods of their use” (UREKA SARL, priority 2016, dated 2022).
≈ marks a conversion by molar mass, not a printed value. Numbered stars: 1 amine (or outer) side, 2 acyl side, 3 side chain; on linkers, the order of the positions; unused ones are H or OH. Bridge positions count the residues as written; N and C are the ends. Square brackets hold non-standard residues; d marks the D form. Peptide text beside a SMILES is read from it. I, II: the chains in the order shown. X4 = NCCCC[C@@H](CNC(=O)[*:1])N[*:2]; X1 = C[C@@H](CNC(=O)[*:1])N[*:2]; Nle = CCCC[C@H](N)C(=O)O

What was measured:
human glucagon receptor = target: T1, human glucagon receptor (Homo sapiens, UniProt P47871); assay: Glucagon functional assay: agonist activity by cAMP production (HTRF) in transfected CHO cells; type: cell-based; settings: for EC50: cAMP production, transfected CHO cells, 10 minutes at 37° C.
T1 construct: expressed in transfected cells; host or cells: CHO cells
T1 sequence (P47871 26-477): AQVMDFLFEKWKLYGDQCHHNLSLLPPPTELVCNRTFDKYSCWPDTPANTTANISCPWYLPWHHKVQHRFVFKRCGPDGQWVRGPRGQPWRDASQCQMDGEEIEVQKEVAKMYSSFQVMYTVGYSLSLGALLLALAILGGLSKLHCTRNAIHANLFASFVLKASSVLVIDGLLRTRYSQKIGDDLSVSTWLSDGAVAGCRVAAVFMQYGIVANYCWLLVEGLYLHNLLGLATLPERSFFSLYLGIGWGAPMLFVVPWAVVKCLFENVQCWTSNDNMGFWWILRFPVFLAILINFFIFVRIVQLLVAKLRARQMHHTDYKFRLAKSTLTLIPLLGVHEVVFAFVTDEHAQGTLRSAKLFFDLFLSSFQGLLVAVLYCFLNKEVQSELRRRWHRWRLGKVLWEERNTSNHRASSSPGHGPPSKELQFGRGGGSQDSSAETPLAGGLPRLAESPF
Method: Functional Assay to Examine Bioactivity of Glucagon Receptor Agonists. Evaluation of the agonist activity of compounds at the human glucagon receptor expressed in transfected CHO cells was examined by measuring their effects on cAMP production using the HTRF detection method. […] For stimulated control measurement, separate assay wells contain 100 nM glucagon were utilized.
Following incubation, the cells were lysed and the fluorescence acceptor (D2-labeled cAMP) and fluorescence donor (anti-cAMP antibody labeled with europium cryptate) were added. […] The results are expressed as a percent of the control response to 100 nM glucagon. The standard reference agonist is glucagon, which was tested in each experiment at several concentrations to generate a concentration-response curve from which its EC50 value was calculated.
HTRF (Homogeneous Time-Resolved Fluorescence) principle. The HTRF technology is based on time resolved fluorescence energy transfer (TR-FRET), which occurs between long-lived fluorophore Europium or Terbium Cryptates, and EuK or Tb respectively, as a donor and the allophycocyanin XL665, d2 or Red as acceptor. Many compounds and proteins present in biological fluids or serum are naturally fluorescent, and the use of conventional, prompt fluorescence leads to serious limitations in assay sensitivity. The use of long-lived fluorophore combined with time-resolved detection (a delay between excitation and emission detection) minimizes prompt fluorescence interference.

[1] = Solubility of glucagon analogs (UV absorbance); type: physicochemical; settings: for solubility: 0.01M HCl solution adjusted to pH 7 with Na2HPO4, pH 7, pH adjusted to 7 with Na2HPO4, incubated overnight at 4° C.; for ratio (solubility relative to reference compound 16): relative to compound 16;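 for all read-outs here: peptide stock at 3 mg/ml in 0.01 M HCl, absorbance at 280 nm read before neutralization and again on the diluted supernatant after centrifugation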
Method: A solution of 3 mg/ml of glucagon (or analog) was prepared in a 0.01M HCl solution. Then 0.1 ml of the stock solution was diluted to 1 ml with HCl (0.01M) and the UV absorbance measured (to 280 nm) with nanodrop UV spectrometer. The pH of the remaining stock solution was adjusted to 7 using Na2HPO4, and the solution was incubated overnight at 4° C. The solution was then centrifuged three times (5 minutes, 4000 rotations per minute), 0.1 ml of the supernatant was removed and diluted to 1 ml with HCl solution (0.01M).
The final UV absorbance was measured.

Structure (SMILES)	EC50 (human glucagon receptor)	solubility [1]	ratio (solubility relative to reference compound 16) [1]	% bioactivity of reference, GCG-R (human glucagon receptor; Reference Compound 16)
CCCC[C@H](NC(=O)[C@H](CC(C)C)NC(=O)[C@H](Cc1c[nH]c2ccccc12)NC(=O)[C@H](CCC(N)=O)NC(=O)[C@@H](NC(=O)[C@H](Cc1ccccc1)NC(=O)[C@H](CC(=O)O)NC(=O)NC[C@H](CCC(N)=O)NC(=O)[C@H](C)NC(=O)[C@H](CCCNC(=N)N)NC(=O)[C@H](CCCNC(=N)N)NC(=O)[C@H](CO)NC(=O)[C@H](CC(=O)O)NC(=O)[C@H](CC(C)C)NC(=O)[C@H](Cc1ccc(O)cc1)NC(=O)[C@H](CCCCN)NC(=O)[C@H](CO)NC(=O)[C@H](Cc1ccc(O)cc1)NC(=O)[C@H](CC(=O)O)NC(=O)[C@H](CO)NC(=O)[C@@H](NC(=O)[C@H](Cc1ccccc1)NC(=O)[C@@H](NC(=O)CNC(=O)[C@H](CCC(N)=O)NC(=O)[C@H](CO)NC(=O)[C@@H](N)Cc1c[nH]cn1)[C@@H](C)O)[C@@H](C)O)C(C)C)C(=O)N[C@@H](CC(N)=O)C(=O)N[C@H](C(=O)O)[C@@H](C)O [Compound 60]	36 nM	830 µg/mL (≈ 238 µM)	3.3	–
CCCC[C@H](NC(=O)[C@H](CC(C)C)NC(=O)[C@H](Cc1c[nH]c2ccccc12)NC(=O)[C@H](CCC(N)=O)NC(=O)[C@@H](NC(=O)[C@H](Cc1ccccc1)NC(=O)[C@H](CC(=O)O)NC(=O)[C@H](CCC(N)=O)NC(=O)[C@H](C)NC(=O)[C@H](CCCNC(=N)N)NC(=O)[C@H](CCCNC(=N)N)NC(=O)[C@H](CO)NC(=O)[C@H](CC(=O)O)NC(=O)NC[C@H](C)NC(=O)[C@H](Cc1ccc(O)cc1)NC(=O)[C@H](CCCCN)NC(=O)[C@H](CO)NC(=O)[C@H](Cc1ccc(O)cc1)NC(=O)[C@H](CC(=O)O)NC(=O)[C@H](CO)NC(=O)[C@@H](NC(=O)[C@H](Cc1ccccc1)NC(=O)[C@@H](NC(=O)CNC(=O)[C@H](CCC(N)=O)NC(=O)[C@H](CO)NC(=O)[C@@H](N)Cc1c[nH]cn1)[C@@H](C)O)[C@@H](C)O)C(C)C)C(=O)N[C@@H](CC(N)=O)C(=O)N[C@H](C(=O)O)[C@@H](C)O [Compound 51] (I: DSRRAQDFVQWL[Nle]NT-OH / II: H-HSQGTFTSDYSKY; linker I:N-II:C via X1; C-terminus assumed)	68 nM	560 µg/mL (≈ 162 µM)	2.2	–
CCCC[C@H](NC(=O)[C@H](CC(C)C)NC(=O)[C@H](Cc1c[nH]c2ccccc12)NC(=O)[C@H](CCC(N)=O)NC(=O)[C@@H](NC(=O)[C@H](Cc1ccccc1)NC(=O)[C@H](CC(=O)O)NC(=O)[C@H](CCC(N)=O)NC(=O)[C@H](C)NC(=O)[C@H](CCCNC(=N)N)NC(=O)[C@H](CCCNC(=N)N)NC(=O)NC[C@H](C)NC(=O)[C@H](CC(=O)O)NC(=O)[C@H](CC(C)C)NC(=O)[C@H](Cc1ccc(O)cc1)NC(=O)[C@H](CCCCN)NC(=O)[C@H](CO)NC(=O)[C@H](Cc1ccc(O)cc1)NC(=O)[C@H](CC(=O)O)NC(=O)[C@H](CO)NC(=O)[C@@H](NC(=O)[C@H](Cc1ccccc1)NC(=O)[C@@H](NC(=O)CNC(=O)[C@H](CCC(N)=O)NC(=O)[C@H](CO)NC(=O)[C@@H](N)Cc1c[nH]cn1)[C@@H](C)O)[C@@H](C)O)C(C)C)C(=O)N[C@@H](CC(N)=O)C(=O)N[C@H](C(=O)O)[C@@H](C)O [Compound 52]	34 nM	490 µg/mL (≈ 141 µM)	1.9	–
CCCC[C@H](NC(=O)[C@H](CC(C)C)NC(=O)[C@H](Cc1c[nH]c2ccccc12)NC(=O)[C@H](CCC(N)=O)NC(=O)[C@@H](NC(=O)NC[C@H](Cc1ccccc1)NC(=O)[C@H](CC(=O)O)NC(=O)[C@H](CCC(N)=O)NC(=O)[C@H](C)NC(=O)[C@H](CCCNC(=N)N)NC(=O)[C@H](CCCNC(=N)N)NC(=O)[C@H](CO)NC(=O)[C@H](CC(=O)O)NC(=O)[C@H](CC(C)C)NC(=O)[C@H](Cc1ccc(O)cc1)NC(=O)[C@H](CCCCN)NC(=O)[C@H](CO)NC(=O)[C@H](Cc1ccc(O)cc1)NC(=O)[C@H](CC(=O)O)NC(=O)[C@H](CO)NC(=O)[C@@H](NC(=O)[C@H](Cc1ccccc1)NC(=O)[C@@H](NC(=O)CNC(=O)[C@H](CCC(N)=O)NC(=O)[C@H](CO)NC(=O)[C@@H](N)Cc1c[nH]cn1)[C@@H](C)O)[C@@H](C)O)C(C)C)C(=O)N[C@@H](CC(N)=O)C(=O)N[C@H](C(=O)O)[C@@H](C)O [Compound 62]	53 nM	680 µg/mL (≈ 195 µM)	2.7	–
CCCC[C@H](NC(=O)NC[C@H](C)NC(=O)[C@H](Cc1c[nH]c2ccccc12)NC(=O)[C@H](CCC(N)=O)NC(=O)[C@@H](NC(=O)[C@H](Cc1ccccc1)NC(=O)[C@H](CC(=O)O)NC(=O)[C@H](CCC(N)=O)NC(=O)[C@H](C)NC(=O)[C@H](CCCNC(=N)N)NC(=O)[C@H](CCCNC(=N)N)NC(=O)[C@H](CO)NC(=O)[C@H](CC(=O)O)NC(=O)[C@H](CC(C)C)NC(=O)[C@H](Cc1ccc(O)cc1)NC(=O)[C@H](CCCCN)NC(=O)[C@H](CO)NC(=O)[C@H](Cc1ccc(O)cc1)NC(=O)[C@H](CC(=O)O)NC(=O)[C@H](CO)NC(=O)[C@@H](NC(=O)[C@H](Cc1ccccc1)NC(=O)[C@@H](NC(=O)CNC(=O)[C@H](CCC(N)=O)NC(=O)[C@H](CO)NC(=O)[C@@H](N)Cc1c[nH]cn1)[C@@H](C)O)[C@@H](C)O)C(C)C)C(=O)N[C@@H](CC(N)=O)C(=O)N[C@H](C(=O)O)[C@@H](C)O [Compound 58]	35 nM	1510 µg/mL (≈ 437 µM)	6.0	–
CCCC[C@H](NC(=O)[C@H](CC(C)C)NC(=O)[C@H](Cc1c[nH]c2ccccc12)NC(=O)[C@H](CCC(N)=O)NC(=O)[C@@H](NC(=O)[C@H](Cc1ccccc1)NC(=O)[C@H](CC(=O)O)NC(=O)[C@H](CCC(N)=O)NC(=O)[C@H](C)NC(=O)[C@H](CCCNC(=N)N)NC(=O)[C@H](CCCNC(=N)N)NC(=O)[C@H](CO)NC(=O)[C@H](CC(=O)O)NC(=O)[C@H](CC(C)C)NC(=O)[C@H](Cc1ccc(O)cc1)NC(=O)NC[C@H](CCCCN)NC(=O)[C@H](CO)NC(=O)[C@H](Cc1ccc(O)cc1)NC(=O)[C@H](CC(=O)O)NC(=O)[C@H](CO)NC(=O)[C@@H](NC(=O)[C@H](Cc1ccccc1)NC(=O)[C@@H](NC(=O)CNC(=O)[C@H](CCC(N)=O)NC(=O)[C@H](CO)NC(=O)[C@@H](N)Cc1c[nH]cn1)[C@@H](C)O)[C@@H](C)O)C(C)C)C(=O)N[C@@H](CC(N)=O)C(=O)N[C@H](C(=O)O)[C@@H](C)O [Compound 59] (I: YLDSRRAQDFVQWL[Nle]NT-OH / II: H-HSQGTFTSDYS; linker I:N-II:C via X4; C-terminus assumed)	32 nM	720 µg/mL (≈ 206 µM)	2.9	–
CCCC[C@H](NC(=O)[C@H](CC(C)C)NC(=O)[C@H](Cc1c[nH]c2ccccc12)NC(=O)[C@H](CCC(N)=O)NC(=O)[C@@H](NC(=O)[C@H](Cc1ccccc1)NC(=O)[C@H](CC(=O)O)NC(=O)[C@H](CCC(N)=O)NC(=O)[C@H](C)NC(=O)[C@H](CCCNC(=N)N)NC(=O)[C@H](CCCNC(=N)N)NC(=O)[C@H](CO)NC(=O)[C@H](CC(=O)O)NC(=O)[C@H](CC(C)C)NC(=O)[C@H](Cc1ccc(O)cc1)NC(=O)[C@H](CCCCN)NC(=O)[C@H](CO)NC(=O)[C@H](Cc1ccc(O)cc1)NC(=O)[C@H](CC(=O)O)NC(=O)[C@H](CO)NC(=O)[C@@H](NC(=O)[C@H](Cc1ccccc1)NC(=O)[C@@H](NC(=O)CNC(=O)[C@H](CCC(N)=O)NC(=O)[C@H](CO)NC(=O)[C@@H](N)Cc1c[nH]cn1)[C@@H](C)O)[C@@H](C)O)C(C)C)C(=O)N[C@@H](C)CNC(=O)N[C@H](C(=O)O)[C@@H](C)O [Compound 35]	0.44 nM	–	–	–
CCCC[C@H](NC(=O)[C@H](CC(C)C)NC(=O)[C@H](Cc1c[nH]c2ccccc12)NC(=O)[C@H](CCC(N)=O)NC(=O)[C@@H](NC(=O)[C@H](Cc1ccccc1)NC(=O)[C@H](CC(=O)O)NC(=O)[C@H](CCC(N)=O)NC(=O)[C@H](C)NC(=O)[C@H](CCCNC(=N)N)NC(=O)NC[C@H](C)NC(=O)[C@H](CO)NC(=O)[C@H](CC(=O)O)NC(=O)[C@H](CC(C)C)NC(=O)[C@H](Cc1ccc(O)cc1)NC(=O)[C@H](CCCCN)NC(=O)[C@H](CO)NC(=O)[C@H](Cc1ccc(O)cc1)NC(=O)[C@H](CC(=O)O)NC(=O)[C@H](CO)NC(=O)[C@@H](NC(=O)[C@H](Cc1ccccc1)NC(=O)[C@@H](NC(=O)CNC(=O)[C@H](CCC(N)=O)NC(=O)[C@H](CO)NC(=O)[C@@H](N)Cc1c[nH]cn1)[C@@H](C)O)[C@@H](C)O)C(C)C)C(=O)N[C@@H](CC(N)=O)C(=O)N[C@H](C(=O)O)[C@@H](C)O [Compound 53]	0.67 nM	580 µg/mL (≈ 170 µM)	2.3	–
CCCC[C@H](NC(=O)[C@H](CC(C)C)NC(=O)[C@H](Cc1c[nH]c2ccccc12)NC(=O)[C@H](CCC(N)=O)NC(=O)[C@@H](NC(=O)[C@H](Cc1ccccc1)NC(=O)[C@H](CC(=O)O)NC(=O)[C@H](CCC(N)=O)NC(=O)[C@H](C)NC(=O)[C@H](CCCNC(=N)N)NC(=O)[C@H](CCCNC(=N)N)NC(=O)[C@H](CO)NC(=O)[C@H](CC(=O)O)NC(=O)[C@H](CC(C)C)NC(=O)[C@H](Cc1ccc(O)cc1)NC(=O)[C@H](CCCCN)NC(=O)[C@H](CO)NC(=O)[C@H](Cc1ccc(O)cc1)NC(=O)[C@H](CC(=O)O)NC(=O)[C@H](CO)NC(=O)[C@@H](NC(=O)[C@H](Cc1ccccc1)NC(=O)[C@@H](NC(=O)CNC(=O)[C@H](CCC(N)=O)NC(=O)[C@H](CO)NC(=O)[C@@H](N)Cc1c[nH]cn1)[C@@H](C)O)[C@@H](C)O)C(C)C)C(=O)N[C@@H](CC(N)=O)C(=O)N[C@@H](C)CNC(N)=O [Compound 36]	0.026 nM	–	–	246%
